For four compounds, growth results are on record in ChEMBL document CHEMBL3994622, “Design and synthesis of new RAF kinase-inhibiting antiproliferative quinoline derivatives. Part 2: Diarylurea derivatives” (Eur J Med Chem, 2017).

Molecules are shown by their SMILES.

Common to all, as to assay type: functional
In one test the test system is UO-31. The experiment in a line: Growth inhibition of human UO31 cells assessed as cell growth at 0.03 uM incubated for 48 hrs by sulforhodamine B assay relative to control. The conditions noted are these: UO-31, 48 h, read-out: Activity.
The subject of test [1] is A549. Nature of the test: Growth inhibition of human A549/ATCC cells assessed as cell growth at 0.003 uM incubated for 48 hrs by sulforhodamine B assay relative to control. The settings on record: A549, 48 h, read-out: Activity.
The next test relates to HOP-92. Nature of the test: Growth inhibition of human HOP92 cells assessed as cell growth at 0.03 uM incubated for 48 hrs by sulforhodamine B assay relative to control. The settings on record: HOP-92, 48 h, read-out: Activity.
Test [2] has as its system KM12. Nature of the test: Growth inhibition of human KM12 cells assessed as cell growth at 0.003 uM incubated for 48 hrs by sulforhodamine B assay relative to control. The settings on record: KM12, 48 h, read-out: Activity.
In another test the test system is SF-268. The experiment in a line: Growth inhibition of human SF268 cells assessed as cell growth at 0.3 uM incubated for 48 hrs by sulforhodamine B assay relative to control. The conditions noted are these: SF-268, 48 h, read-out: Activity.
For test [3], the system named is COLO 205. Nature of the test: Growth inhibition of human COLO205 cells assessed as cell growth at 0.03 uM incubated for 48 hrs by sulforhodamine B assay relative to control. The settings on record: COLO 205, 48 h, read-out: Activity.
Test [4] has as its system TK-10. The experiment in a line: Growth inhibition of human TK10 cells assessed as cell growth at 3 uM incubated for 48 hrs by sulforhodamine B assay relative to control. The conditions noted are these: TK-10, 48 h, read-out: Activity.
For test [5], the system named is COLO 205. The experiment in a line: Growth inhibition of human COLO205 cells assessed as cell growth at 0.003 uM incubated for 48 hrs by sulforhodamine B assay relative to control. The conditions noted are these: COLO 205, 48 h, read-out: Activity.
The test system of test [6] is HCC 2998. The experiment in a line: Growth inhibition of human HCC2998 cells assessed as cell growth at 0.003 uM incubated for 48 hrs by sulforhodamine B assay relative to control. The settings on record: HCC 2998, 48 h, read-out: Activity.
Test [7] has as its system A549. Nature of the test: Growth inhibition of human A549/ATCC cells assessed as cell growth at 30 uM incubated for 48 hrs by sulforhodamine B assay relative to control. The settings on record: A549, 48 h, read-out: Activity.
In another test the test system is HCT-116. The experiment in a line: Growth inhibition of human HCT116 cells assessed as cell growth at 30 uM incubated for 48 hrs by sulforhodamine B assay relative to control. The conditions noted are these: HCT-116, 48 h, read-out: Activity.
For another test, the system named is UACC-62. The experiment in a line: Growth inhibition of human UACC62 cells assessed as cell growth at 10 uM incubated for 48 hrs by sulforhodamine B assay relative to control. The conditions noted are these: UACC-62, 48 h, read-out: Activity.
For the next test, the system named is UACC-257. The experiment in a line: Growth inhibition of human UACC257 cells assessed as cell growth at 0.01 uM incubated for 48 hrs by sulforhodamine B assay relative to control. The conditions noted are these: UACC-257, 48 h, read-out: Activity.
Test [8] concerns OVCAR-8. Nature of the test: Growth inhibition of human OVCAR8 cells assessed as cell growth at 100 uM incubated for 48 hrs by sulforhodamine B assay relative to control. The settings on record: OVCAR-8, 48 h, read-out: Activity.
Test [9] relates to SW-620. The experiment in a line: Growth inhibition of human SW620 cells assessed as cell growth at 0.01 uM incubated for 48 hrs by sulforhodamine B assay relative to control. The settings on record: SW-620, 48 h, read-out: Activity.
For test [10], the system named is TK-10. The experiment in a line: Growth inhibition of human TK10 cells assessed as cell growth at 10 uM incubated for 48 hrs by sulforhodamine B assay relative to control. The conditions noted are these: TK-10, 48 h, read-out: Activity.
The next test concerns K562. The experiment in a line: Growth inhibition of human K562 cells assessed as cell growth at 10 uM incubated for 48 hrs by sulforhodamine B assay relative to control. The conditions noted are these: K562, 48 h, read-out: Activity.
The subject of a further test is HT-29. The experiment in a line: Growth inhibition of human HT-29 cells assessed as cell growth at 1 uM incubated for 48 hrs by sulforhodamine B assay relative to control. The settings on record: HT-29, 48 h, read-out: Activity.
The subject of another test is BT-549. The experiment in a line: Growth inhibition of human BT549 cells assessed as cell growth at 0.1 uM incubated for 48 hrs by sulforhodamine B assay relative to control. The conditions noted are these: BT-549, 48 h, read-out: Activity.
The test system of test [11] is COLO 205. The experiment in a line: Growth inhibition of human COLO205 cells assessed as cell growth at 10 uM incubated for 48 hrs by sulforhodamine B assay relative to control. The settings on record: COLO 205, 48 h, read-out: Activity.
The subject of another test is IGROV-1. Nature of the test: Growth inhibition of human IGROV1 cells assessed as cell growth at 100 uM incubated for 48 hrs by sulforhodamine B assay relative to control. The conditions noted are these: IGROV-1, 48 h, read-out: Activity.
The test system of another test is MDA-MB-231. The experiment in a line: Growth inhibition of human MDA-MB-231 cells assessed as cell growth at 1 uM incubated for 48 hrs by sulforhodamine B assay relative to control. The settings on record: MDA-MB-231, 48 h, read-out: Activity.
A further test deals with DU-145. Nature of the test: Growth inhibition of human DU145 cells assessed as cell growth at 0.1 uM incubated for 48 hrs by sulforhodamine B assay relative to control. The settings on record: DU-145, 48 h, read-out: Activity.
Test [12] relates to TK-10. The experiment in a line: Growth inhibition of human TK10 cells assessed as cell growth at 0.1 uM incubated for 48 hrs by sulforhodamine B assay relative to control. The conditions noted are these: TK-10, 48 h, read-out: Activity.
Test [13] has as its system OVCAR-8. Nature of the test: Growth inhibition of human OVCAR8 cells assessed as cell growth at 0.1 uM incubated for 48 hrs by sulforhodamine B assay relative to control. The settings on record: OVCAR-8, 48 h, read-out: Activity.
In test [14] the test system is KM12. Nature of the test: Growth inhibition of human KM12 cells assessed as cell growth at 100 uM incubated for 48 hrs by sulforhodamine B assay relative to control. The settings on record: KM12, 48 h, read-out: Activity.
Test [15] deals with HCC 2998. Nature of the test: Growth inhibition of human HCC2998 cells assessed as cell growth at 10 uM incubated for 48 hrs by sulforhodamine B assay relative to control. The conditions noted are these: HCC 2998, 48 h, read-out: Activity.
The next test relates to SR. Nature of the test: Growth inhibition of human SR cells assessed as cell growth at 1 uM incubated for 48 hrs by sulforhodamine B assay relative to control. The settings on record: read-out: Activity.
Another test has as its system U-251. The experiment in a line: Growth inhibition of human U251 cells assessed as cell growth at 0.01 uM incubated for 48 hrs by sulforhodamine B assay relative to control. The conditions noted are these: U-251, 48 h, read-out: Activity.
The test system of test [16] is SW-620. Nature of the test: Growth inhibition of human SW620 cells assessed as cell growth at 100 uM incubated for 48 hrs by sulforhodamine B assay relative to control. The conditions noted are these: SW-620, 48 h, read-out: Activity.
The test system of the next test is SK-MEL-28. The experiment in a line: Growth inhibition of human SK-MEL-28 cells assessed as cell growth at 100 uM incubated for 48 hrs by sulforhodamine B assay relative to control. The conditions noted are these: SK-MEL-28, 48 h, read-out: Activity.
Test [17] has as its system TK-10. The experiment in a line: Growth inhibition of human TK10 cells assessed as cell growth at 100 uM incubated for 48 hrs by sulforhodamine B assay relative to control. The settings on record: TK-10, 48 h, read-out: Activity.
Another test has as its system NCI-H226. The experiment in a line: Growth inhibition of human NCI-H226 cells assessed as cell growth at 0.1 uM incubated for 48 hrs by sulforhodamine B assay relative to control. The conditions noted are these: NCI-H226, 48 h, read-out: Activity.
The next test concerns NCI-H23. The experiment in a line: Growth inhibition of human NCI-H23 cells assessed as cell growth at 10 uM incubated for 48 hrs by sulforhodamine B assay relative to control. The settings on record: NCI-H23, 48 h, read-out: Activity.

Consider `Cc1nc2cc(O)c(O)cc2cc1Oc1ccc(NC(=O)Nc2ccc(Cl)c(Cl)c2)cc1`, for which the growth at 0.03 µM in the test on UO-31 is 98%; with HOP-92, 80%; with COLO 205 [3], 108%. Also, the growth at 0.003 µM amounted to 100% in the test with A549 [1], 103% in the test with KM12 [2], 107% with COLO 205 [5] and 99% in the test with HCC 2998 [6]. In addition, the growth at 0.3 µM in the test with SF-268 stood at 107%. Besides, the growth at 3 µM in the test with TK-10 [4] was found to be 98%. Further, the growth at 30 µM was -10% in the test on A549 [7] and -26% in the test on HCT-116.

As to `COc1cc2cc(Oc3ccc(NC(=O)Nc4ccc(Cl)c(C(F)(F)F)c4)cc3)c(C)nc2cc1OC`, the growth at 0.03 µM in the test with UO-31 stood at 89%; with HOP-92, 89%; in the test on COLO 205 [3], 94%. Further, the growth at 0.003 µM was 94% in the test with A549 [1], 100% in the test with KM12 [2], 97% in the test with COLO 205 [5] and 102% with HCC 2998 [6]. The growth at 0.3 µM in the test on SF-268 was determined as 100%. In addition, the growth at 3 µM in the test on TK-10 [4] came to 18%. Also, the results for the growth at 30 µM in the test with A549 [7] and with HCT-116 were -80% and -83%, respectively.

In the case of `COc1cc2cc(Oc3ccc(NC(=O)Nc4ccc(Cl)c(Cl)c4)cc3)c(C)nc2cc1OC`, the growth at 10 µM with UACC-62 was 25%; in the test on TK-10 [10], -4%; with K562 it was 15%; with COLO 205 [11] it was -25%; with HCC 2998 [15] it was 34%; in the test on NCI-H23, 15%. The figures for the growth at 0.01 µM in the test on UACC-257, in the test with SW-620 [9] and in the test with U-251 were 97%, 101% and 94%, respectively. The growth at 100 µM is -100% with OVCAR-8 [8]; -15% with IGROV-1; -58% in the test on KM12 [14]; -68% with SW-620 [16]; -77% with SK-MEL-28; -76% in the test with TK-10 [17]. The values for the growth at 1 µM with HT-29, with MDA-MB-231 and with SR were 108%, 77% and 98%, respectively. The growth at 0.1 µM amounted to 88% in the test on BT-549; 110% in the test with DU-145; 121% in the test with TK-10 [12]; 100% in the test on OVCAR-8 [13]; 107% in the test with NCI-H226.

On to `COc1cc2cc(Oc3ccc(NC(=O)Nc4cc(C(F)(F)F)cc(C(F)(F)F)c4)cc3)c(C)nc2cc1OC`, for which the growth at 10 µM is -74% in the test with UACC-62; -3% in the test with TK-10 [10]; -47% in the test on K562; -74% in the test with COLO 205 [11]; -80% with HCC 2998 [15]; -32% with NCI-H23. In addition, the growth at 0.01 µM with UACC-257 stood at 104%; in the test on SW-620 [9] it was 100%; in the test on U-251, 100%. The growth at 100 µM is -43% in the test with OVCAR-8 [8]; -63% in the test with IGROV-1; -74% in the test with KM12 [14]; -66% in the test on SW-620 [16]; -73% in the test with SK-MEL-28; -95% in the test on TK-10 [17]. The growth at 1 µM in the test with HT-29 amounted to 75%; with MDA-MB-231, 55%; with SR, 69%. Besides, the growth at 0.1 µM came out at 94% in the test with BT-549; 100% in the test with DU-145; 89% in the test with TK-10 [12]; 110% in the test on OVCAR-8 [13]; 101% with NCI-H226.
